Laboratory results from patent publication US20260364182A1, “PROTEOLYSIS-TARGETING CHIMERAS AGAINST THE PAPAIN-LIKE PROTEASE OF SARS-COV-2” (Tocris Cookson Limited, priority 2022, published 2026).

Tests used:
SARS-CoV-2 PLpro = biological target: T1, SARS-CoV-2 PLpro (Severe acute respiratory syndrome coronavirus 2, UniProt P0DTD1); assay: IC50 inhibitory assay, fluorogenic substrate cleavage by PLpro; format: biochemical; details: SARS-CoV-2 PLpro 0.1 μM; substrate 10 μM; pH 8.1; 37 °C; 10 min preincubation
T1 construct: The papain-like protease domain (PLpro) of SARS-CoV-2 (SCoV2)
Experimental: The inhibitory activities of compounds against SARS-CoV-2 PLpro were determined in a reaction buffer containing 20 mM HEPES, 40 mM NaCl, 5% glycerol, 2 mM DTT (freshly added before the measurements), pH 8.1, at 37 °C. A fluorescent substrate of SARS-CoV-2 PLpro (Z-Arg-leu-Arg-Gly-Gly-[…]AMC; Biosyntan, Berlin) was used, and the fluorescence signal of the cleaved substrate was monitored using a Tecan Spark® fluorescence spectrophotometer at an […] wavelength of 460/360 nm. SARS-CoV-2 PLpro (10 μL per well) was pipetted into a 96-well plate together with reaction buffer reaction buffer (50 μL per well, final enzyme concentration: 0.1 μM). Compounds (10 μL per well) were added at varying concentrations, and plates incubated at 37 °C for 10 mins. Finally, the reaction was initiated by adding 30 μL of the substrate (final concentration: 10 μM) dissolved in the reaction buffer.
FIG. 1: PROTAC and parent ligand for SARS-CoV-2 PLpro in a binary IC50 experiment. C10778A PROTAC (top left), comprising a SARS-CoV-2 PLpro targeting ligand C10778B (bottom left) connected to thalidomide via a C3 alkyl linker. IC50 values have been determined in an in vitro inhibitory binding assay whereby the fluorescence signal resulting from cleavage of a fluorogenic substrate by PLpro is measured. Inhibition of PLpro is associated with reduced cleavage of the fluorogenic substrate. […] Assay conditions: experiments were performed in 20 mM HEPES buffer containing 40 mM NaCl 5% glycerol, 2 mM DTT at pH 8.1. A fluorogenic substrate for PLpro (Z-Arg-leu-Arg-Gly-Gly-AMC) was used to determine the inhibition rate of compounds. Final DMSO concentration in each reaction was 1%. Measurements were performed in triplicate.

SARS-CoV-2 [1] = assay: Antiviral assay in infected Vero E6 cells (ATP quantification, Cell Titer Glo); details: Severe acute respiratory syndrome coronavirus 2, Vero C1008, 72 h; for inhibition at 10 µM: read-out: Antiviral Activity, 10 uM (cell viability assay), 10 uM; for inhibition at 10 µM / inhibition at 50 µM: Vero E6 cells, MOI 0.05, 72 h; for inhibition at 50 µM: read-out: Antiviral Activity, 50 uM (cell viability assay), 50 uM
Experimental: Vero E6 cells (2×10^4/well) were seeded in 96 well plates one day before the experiment. Pre-treatment, the medium was removed and compounds were added at concentrations varying from 0.1-100 μM. After 24 h incubation, the medium was removed and cells were infected with MOI 0.05 SARS-CoV-2 SARS-CoV2/ZG/297-20. After 1 h infection, the viruses were removed and the same concentration of compounds were added back into the cells. After 72 h incubation at 37 °C, EC50 measurements were made using ATP quantification (Cell Titer Glo).

SARS-CoV-2 [2] = assay: Plaque reduction assay in Vero E6 cells; format: cell-based; details: MOI 0.1

Which results are given for `C[C@H](c1cccc2ccccc12)N1CCC(C(=O)NCc2cc(F)cc(NC(=O)N3CCN(CCCCCCOc4cccc5c4C(=O)N(C4CCC(=O)NC4=O)C5=O)CC3)c2)CC1` (some centres unmarked) [TS444]?
IC50 (SARS-CoV-2 PLpro): < 10 µM; inhibition at 10 µM (SARS-CoV-2 [1]): < 25%; inhibition at 50 µM (SARS-CoV-2 [1]): < 25%

With `C[C@H](c1cccc2ccccc12)N1CCC(C(=O)NCc2cc(F)cc(NC(=O)N3CCN(CCOc4cccc5c4C(=O)N(C4CCC(=O)NC4=O)C5=O)CC3)c2)CC1` (some centres unmarked) [TS445] as the compound, how does the IC50 (SARS-CoV-2 PLpro) read?
Its IC50 is < 1 µM.

And the inhibition at 10 µM (SARS-CoV-2 [1])?
The inhibition at 10 µM was < 25%.

What about the inhibition at 50 µM (SARS-CoV-2 [1]) of the same compound?
The inhibition at 50 µM was < 25%.

For `C[C@H](c1cccc2ccccc12)N1CCC(C(=O)NCc2cc(F)cc(NC(=O)N3CCN(CCCCCCCCOc4cccc5c4C(=O)N(C4CCC(=O)NC4=O)C5=O)CC3)c2)CC1` (some centres unmarked) [TS446], which IC50 (SARS-CoV-2 PLpro) is on record?
The IC50 was > 25 µM.

What about the inhibition at 10 µM (SARS-CoV-2 [1]) of the same compound?
Its inhibition at 10 µM is < 50%.

And the inhibition at 50 µM (SARS-CoV-2 [1])?
Its inhibition at 50 µM is > 75%.

`C[C@H](c1cccc2ccccc12)N1CCC(C(=O)NCc2cc(F)cc(NC(=O)N3CCN(CCCCOc4cccc5c4C(=O)N(C4CCC(=O)NC4=O)C5=O)CC3)c2)CC1` (some centres unmarked) [TS452] was tested. Which IC50 (SARS-CoV-2 PLpro) did it give?
The IC50 was < 10 µM.

And the inhibition at 10 µM (SARS-CoV-2 [1])?
The inhibition at 10 µM was < 0%.

What about the inhibition at 50 µM (SARS-CoV-2 [1]) of the same compound?
The inhibition at 50 µM was < 0%.

`C[C@H](c1cccc2ccccc12)N1CCC(C(=O)NCc2cc(F)cc(NC(=O)N3CCN(CCOc4ccc5c(c4)C(=O)N(C4CCC(=O)NC4=O)C5=O)CC3)c2)CC1` (some centres unmarked) [TS499] was tested. Which IC50 (SARS-CoV-2 PLpro) did it give?
Its IC50 is < 1 µM.

What about the inhibition at 10 µM (SARS-CoV-2 [1]) of the same compound?
Its inhibition at 10 µM is < 25%.

And the inhibition at 50 µM (SARS-CoV-2 [1])?
The inhibition at 50 µM was < 25%.

For `C[C@H](c1cccc2ccccc12)N1CCC(C(=O)NCc2cc(F)cc(NC(=O)N3CCN(CCCCCCCCOc4ccc5c(c4)C(=O)N(C4CCC(=O)NC4=O)C5=O)CC3)c2)CC1` (some centres unmarked) [TS516], which IC50 (SARS-CoV-2 PLpro) is on record?
Its IC50 is 10 to 25 µM.

And the “plaque reduction (viable virus, in words)” value (SARS-CoV-2 [2])?
Its value is “efficiently reduces viable virus”.

And the EC50 (SARS-CoV-2 [1])?
The EC50 was 4.4 µM.

What about the inhibition at 10 µM (SARS-CoV-2 [1]) of the same compound?
Its inhibition at 10 µM is < 50%.

What about the inhibition at 50 µM (SARS-CoV-2 [1]) of the same compound?
Its inhibition at 50 µM is > 75%.

With `C[C@H](c1cccc2ccccc12)N1CCC(C(=O)NCc2cc(F)cc(NC(=O)N3CCN(CCNC(=O)COc4ccc(C5CCC(=O)NC5=O)cc4)CC3)c2)CC1` (some centres unmarked) [TS519] as the compound, how does the IC50 (SARS-CoV-2 PLpro) read?
The IC50 was < 10 µM.

What about the inhibition at 10 µM (SARS-CoV-2 [1]) of the same compound?
Its inhibition at 10 µM is < 25%.

And the inhibition at 50 µM (SARS-CoV-2 [1])?
Its inhibition at 50 µM is < 25%.

Which IC50 (SARS-CoV-2 PLpro) does the source give for `C[C@H](c1cccc2ccccc12)N1CCC(C(=O)NCc2cc(F)cc(NC(=O)N3CCN(CCCCNC(=O)COc4ccc(C5CCC(=O)NC5=O)cc4)CC3)c2)CC1` (some centres unmarked) [TS526] here?
The IC50 was < 10 µM.

What about the inhibition at 10 µM (SARS-CoV-2 [1]) of the same compound?
Its inhibition at 10 µM is < 0%.

And the inhibition at 50 µM (SARS-CoV-2 [1])?
Its inhibition at 50 µM is < 25%.

Which IC50 (SARS-CoV-2 PLpro) does the source give for `C[C@H](c1cccc2ccccc12)N1CCC(C(=O)NCc2cc(F)cc(NC(=O)N3CCN(CCCCCCNC(=O)COc4ccc(C5CCC(=O)NC5=O)cc4)CC3)c2)CC1` (some centres unmarked) [TS529] here?
The IC50 was < 10 µM.

And the inhibition at 10 µM (SARS-CoV-2 [1])?
The inhibition at 10 µM was < 75%.

And the inhibition at 50 µM (SARS-CoV-2 [1])?
The inhibition at 50 µM was < 75%.

What does the source list for `C[C@H](c1cccc2ccccc12)N1CCC(C(=O)NCc2cc(F)cc(NC(=O)N3CCN(CCCCOc4ccc5c(c4)C(=O)N(C4CCC(=O)NC4=O)C5=O)CC3)c2)CC1` (some centres unmarked) [TS530]?
IC50 (SARS-CoV-2 PLpro): < 10 µM; inhibition at 10 µM (SARS-CoV-2 [1]): < 25%; inhibition at 50 µM (SARS-CoV-2 [1]): < 75%

`C[C@H](c1cccc2ccccc12)N1CCC(C(=O)NCc2cc(F)cc(NC(=O)N3CCN(CCCCCCOc4ccc5c(c4)C(=O)N(C4CCC(=O)NC4=O)C5=O)CC3)c2)CC1` (some centres unmarked) [TS534] was tested. Which IC50 (SARS-CoV-2 PLpro) did it give?
Its IC50 is < 10 µM.

What about the inhibition at 10 µM (SARS-CoV-2 [1]) of the same compound?
The inhibition at 10 µM was < 25%.

And the inhibition at 50 µM (SARS-CoV-2 [1])?
Its inhibition at 50 µM is > 75%.

For `C[C@H](c1cccc2ccccc12)N1CCC(C(=O)NCc2cc(F)cc(NC(=O)N3CCN(CC4CCN(c5ccc6c(c5)C(=O)N(C5CCC(=O)NC5=O)C6=O)CC4)CC3)c2)CC1` (some centres unmarked) [TS535], which IC50 (SARS-CoV-2 PLpro) is on record?
The IC50 was 10 to 25 µM.

What about the inhibition at 10 µM (SARS-CoV-2 [1]) of the same compound?
Its inhibition at 10 µM is < 25%.

What about the inhibition at 50 µM (SARS-CoV-2 [1]) of the same compound?
The inhibition at 50 µM was < 75%.

How did the IC50 (SARS-CoV-2 PLpro) turn out when `C[C@H](c1cccc2ccccc12)N1CCC(C(=O)NCc2cc(F)cc(NC(=O)N3CCN(CCCCC(=O)N4CCN(c5ccc(C6CCC(=O)NC6=O)cc5)CC4)CC3)c2)CC1` (some centres unmarked) [TS551] was run?
The IC50 was < 10 µM.

And the inhibition at 10 µM (SARS-CoV-2 [1])?
Its inhibition at 10 µM is < 25%.

And the inhibition at 50 µM (SARS-CoV-2 [1])?
The inhibition at 50 µM was < 50%.

How did the IC50 (SARS-CoV-2 PLpro) turn out when `C[C@H](c1cccc2ccccc12)N1CCC(C(=O)NCc2cc(F)cc(NC(=O)N3CCN(CCCCC(=O)N4CCN(c5ccc(N6CCC(=O)NC6=O)cc5)CC4)CC3)c2)CC1` [TS553] was run?
The IC50 was < 10 µM.

And the inhibition at 10 µM (SARS-CoV-2 [1])?
Its inhibition at 10 µM is < 25%.

And the inhibition at 50 µM (SARS-CoV-2 [1])?
The inhibition at 50 µM was < 25%.

For `C[C@H](c1cccc2ccccc12)N1CCC(C(=O)NCc2cc(F)cc(NC(=O)N3CCN(CCCCNC(=O)COc4ccc(N5CCC(=O)NC5=O)cc4)CC3)c2)CC1` [TS557], which IC50 (SARS-CoV-2 PLpro) is on record?
The IC50 was < 10 µM.

What about the inhibition at 10 µM (SARS-CoV-2 [1]) of the same compound?
Its inhibition at 10 µM is < 0%.

And the inhibition at 50 µM (SARS-CoV-2 [1])?
Its inhibition at 50 µM is < 0%.

`Cc1ncsc1-c1ccc(CNC(=O)[C@@H]2C[C@@H](O)CN2C(=O)[C@@H](NC(=O)CCCCN2CCN(C(=O)Nc3cc(F)cc(CNC(=O)C4CCN([C@H](C)c5cccc6ccccc56)CC4)c3)CC2)C(C)(C)C)cc1` [TS558] was tested. Which IC50 (SARS-CoV-2 PLpro) did it give?
The IC50 was < 10 µM.

What about the inhibition at 10 µM (SARS-CoV-2 [1]) of the same compound?
The inhibition at 10 µM was < 0%.

And the inhibition at 50 µM (SARS-CoV-2 [1])?
The inhibition at 50 µM was < 0%.

For `Cc1ccc(C(=O)NCCCCN2CCN(C(=O)Nc3cc(F)cc(CNC(=O)C4CCN([C@H](C)c5cccc6ccccc56)CC4)c3)CC2)cc1N1CCC(=O)NC1=O` [TS567], which IC50 (SARS-CoV-2 PLpro) is on record?
Its IC50 is < 10 µM.

What about the inhibition at 10 µM (SARS-CoV-2 [1]) of the same compound?
The inhibition at 10 µM was < 0%.

What about the inhibition at 50 µM (SARS-CoV-2 [1]) of the same compound?
The inhibition at 50 µM was < 0%.

For `C[C@H](c1cccc2ccccc12)N1CCC(C(=O)NCc2cc(F)cc(NC(=O)N3CCN(CCOCCOCCC(=O)N4CCN(c5ccc(C6CCC(=O)NC6=O)cc5)CC4)CC3)c2)CC1` (some centres unmarked) [TS568], which IC50 (SARS-CoV-2 PLpro) is on record?
Its IC50 is < 10 µM.

And the inhibition at 10 µM (SARS-CoV-2 [1])?
The inhibition at 10 µM was < 25%.

And the inhibition at 50 µM (SARS-CoV-2 [1])?
The inhibition at 50 µM was < 75%.

How did the IC50 (SARS-CoV-2 PLpro) turn out when `C[C@H](c1cccc2ccccc12)N1CCC(C(=O)NCc2cc(F)cc(NC(=O)N3CCN(CCOCCOCCC(=O)N4CCN(c5ccc(N6CCC(=O)NC6=O)cc5)CC4)CC3)c2)CC1` [TS569] was run?
Its IC50 is < 10 µM.

What about the inhibition at 10 µM (SARS-CoV-2 [1]) of the same compound?
The inhibition at 10 µM was < 0%.

And the inhibition at 50 µM (SARS-CoV-2 [1])?
Its inhibition at 50 µM is < 25%.
